The values below come from patent publication US9670214B2, “Small molecule myristate inhibitors of Bcr-abl and methods of use” (DANA-FARBER CANCER INSTITUTE, INC., priority 2007, dated 2017).

Where only a bound is given, the exact number is not on record here.

The subject of assay [1] is Ba/F3 cells (IL-3 dependent murine pro-B cell line). Nature of the assay: Proliferation assay (MTT), parental Ba/F3 cells. Format: cell-based. The following applies: Mus musculus, 48 h, drug concentrations 0.005-10 μM, read-out: BaF3. The essentials: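 Parental Ba/F3 cells grown with 10 U/ml murine IL-3 in RPMI/10% FBS, plated at 0.3-0.6×10^6/ml with compound at 0.005-10 μM for 48 h, 37 °C. Viability by MTT reduction; IC50 from percent growth relative to DMSO controls.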

The target in assay [2] is Bcr-abl (Ba/F3.p210 cells) (Homo sapiens, UniProt P00519). Nature of the assay: Proliferation assay (MTT), wild type Bcr-abl expressing Ba/F3 cells. Format: cell-based, murine. The following applies: 48 h, drug concentrations 0.005-10 μM. An excerpt:
(§1) Wild type Bcr-abl expressing 32D (32D.p210) and Ba/F3 (Ba/F3.p210) cells, and mutant Bcr-abl expressing cell lines Ba/F3.p210^G250E, Ba/F3.p210^E255V, Ba/F3.p210^T315I, Ba/F3.p210^F317L and Ba/F3.p210^M351T, as well as Ba/F3 cells transformed with Flt-3-ITD kinase. Additional assays included Ba/F3 cells expressing the fusion protein kinases TEL-PDGFRβ, TEL-JAK1, NPM-ALK, TEL-cKit, Tel-Bmx, Tel-FGR3, Tel-Lck and Ba/F3.TPR-met cells. All the above cell lines were maintained in RPMI-1640 medium with L-Glutamine, 10% FBS and 1 mg/ml geneticin (Gibco).
(§2) Cells (0.3-0.6×10^6/ml) were plated in duplicate or triplicate in 96-well plates containing increasing drug concentrations (0.005-10 μM). After incubation at 37° C. in 5% CO2 for 48 h, the effect of the compounds on cell viability was determined by MTT (Promega) colorimetric dye reduction method. Inhibition of cell proliferation was calculated as a percentage of growth of DMSO treated cells, and IC50 values were determined with Microsoft Excel XLfit3.

Assay [3] concerns the target Bcr-abl T315I (Ba/F3.p210^T315I cells) (Homo sapiens, UniProt P00519, T315I, cells depend on it). The assay can be described thus: Proliferation assay (MTT), T315I mutant Bcr-abl expressing Ba/F3 cells. Format: cell-based, murine. The following applies: 48 h, drug concentrations 0.005-10 μM.
Excerpt: as §1, §2

For `FC(F)(F)Oc1ccc(Nc2ncnc3[nH]ccc23)cc1`, the IC50 is above 10 µM in assay [1], above 10000 nM in assay [2] and above 10 µM in assay [3].
Take `Cn1ccc2c(Nc3ccc(OC(F)(F)F)cc3)ncnc21`: the IC50 in assay [1] was above 10 µM; in assay [2] it was 6890 nM; in assay [3], above 10 µM.
For `Cn1c(C(N)=O)cc2c(Nc3ccc(OC(F)(F)F)cc3)ncnc21`, the IC50 in assay [1] was above 10 µM; in assay [2], 620 nM; in assay [3], above 10 µM.
On to `CCN1CCCC1NC(=O)c1cc2c(Nc3ccc(OC(F)(F)F)cc3)ncnc2n1C` (stereo not drawn), for which the IC50 in assay [1] is 5.12 µM; in assay [2] it was 2950 nM; in assay [3], 8.47 µM.
For `Cn1c(C(=O)NC(=N)N)cc2c(Nc3ccc(OC(F)(F)F)cc3)ncnc21`, the IC50 in assay [1] is above 10 µM; in assay [2], above 10000 nM; in assay [3] it was above 10 µM.
`CCN(CC)CCCC(C)NC(=O)c1cc2c(Nc3ccc(OC(F)(F)F)cc3)ncnc2n1C` (stereo not drawn): the IC50 in assay [1] was found to be 4.12 µM; in assay [2], 1180 nM; in assay [3], 4 µM.
Consider `COC(=O)c1ccc2c(Nc3ccc(OC(F)(F)F)cc3)ncnc2c1`, for which the IC50 came to 6.62 µM in assay [1], 214 nM in assay [2] and 1.91 µM in assay [3].
As for `OCc1ccc2c(Nc3ccc(OC(F)(F)F)cc3)ncnc2c1`, the IC50 in assay [1] was above 10 µM; in assay [2] it was 508 nM; in assay [3] it was above 10 µM.
Regarding `CCN(CC)Cc1ccc2c(Nc3ccc(OC(F)(F)F)cc3)ncnc2c1`, the IC50 in assay [1] was above 10 µM; in assay [2], 2040 nM; in assay [3], above 10 µM.
With `CCN(CC)C(=O)c1ccc2c(Nc3ccc(OC(F)(F)F)cc3)ncnc2c1`, the IC50 in assay [1] was above 10 µM; in assay [2], 742 nM; in assay [3], 3.17 µM.
`O=C(c1ccoc1)N1CCN(C(=O)c2ccc3c(Nc4ccc(OC(F)(F)F)cc4)ncnc3c2)CC1`: the IC50 in assay [1] is above 10 µM; in assay [2] it was 2040 nM; in assay [3], 3.9 µM.
Regarding `O=C(Nc1cccc(C(F)(F)F)c1)c1ccc2c(Nc3ccc(OC(F)(F)F)cc3)ncnc2c1`, the IC50 came out at 4.5 µM in assay [1], 1280 nM in assay [2] and 1.56 µM in assay [3].
Consider `COCCCNC(=O)c1ccc2c(Nc3ccc(OC(F)(F)F)cc3)ncnc2c1`, for which the IC50 in assay [1] is above 10 µM; in assay [2], 4090 nM; in assay [3], above 10 µM.
On to `CCNNC(=O)c1ccc2c(Nc3ccc(OC(F)(F)F)cc3)ncnc2c1`, for which the IC50 in assay [1] was determined as 6.51 µM; in assay [2], 1880 nM; in assay [3], 6.3 µM.
The matching figures for `COC1CCN(C(=O)c2ccc3c(Nc4ccc(OC(F)(F)F)cc4)ncnc3c2)CC1`: above 10 µM, 639 nM and 0.895 µM.
Regarding `O=C(c1ccc2c(Nc3ccc(OC(F)(F)F)cc3)ncnc2c1)N1CCC(O)C1` (stereo not drawn), the IC50 in assay [1] is above 10 µM; in assay [2] it was 1170 nM; in assay [3], above 10 µM.
With `O=C(c1ccc2c(Nc3ccc(OC(F)(F)F)cc3)ncnc2c1)N1CCCC1CO` (stereo not drawn), the IC50 in assay [1] was above 10 µM; in assay [2], 1650 nM; in assay [3] it was above 10 µM.
With `CN(CCO)C(=O)c1ccc2c(Nc3ccc(OC(F)(F)F)cc3)ncnc2c1`, the figures for the IC50 in assay [1], in assay [2] and in assay [3] were above 10 µM, 2660 nM and above 10 µM, respectively.
Regarding `CN1CCC(N(C)C(=O)c2ccc3c(Nc4ccc(OC(F)(F)F)cc4)ncnc3c2)CC1`, the IC50 in assay [1] turned out to be 5.99 µM; in assay [2], 689 nM; in assay [3], 5 µM.
With `Cc1ccc(S(=O)(=O)NC(=O)c2ccc3c(Nc4ccc(OC(F)(F)F)cc4)ncnc3c2)cc1`, the IC50 is above 10 µM in assay [1], above 10000 nM in assay [2] and above 10 µM in assay [3].
Turning to `CC(C)(C)S(=O)(=O)NC(=O)c1ccc2c(Nc3ccc(OC(F)(F)F)cc3)ncnc2c1`, the results for the IC50 in assay [1], in assay [2] and in assay [3] were above 10 µM, above 10000 nM and above 10 µM, respectively.
Regarding `CC1CN(C(=O)c2ccc3c(Nc4ccc(OC(F)(F)F)cc4)ncnc3c2)CC(C)N1` (stereo not drawn), the IC50 in assay [1] is 7.62 µM; in assay [2] it was 2140 nM; in assay [3], above 10 µM.
On to `CNCCN(C)C(=O)c1ccc2c(Nc3ccc(OC(F)(F)F)cc3)ncnc2c1`, for which the values for the IC50 in assay [1], in assay [2] and in assay [3] were above 10 µM, 5980 nM and above 10 µM, respectively.
Turning to `O=C(NCCO)c1ccc2c(Nc3ccc(OC(F)(F)F)cc3)ncnc2c1`, the IC50 is above 10 µM in assay [1], 2150 nM in assay [2] and above 10 µM in assay [3].
For the molecule `O=C(c1ccc2c(Nc3ccc(OC(F)(F)F)cc3)ncnc2c1)N1CCC2(CC1)C(=O)NCN2c1ccccc1`, the IC50 was 6.89 µM in assay [1], 1480 nM in assay [2] and 8.32 µM in assay [3].
In the case of `NC(=O)C1CCCN(C(=O)c2ccc3c(Nc4ccc(OC(F)(F)F)cc4)ncnc3c2)C1` (stereo not drawn), the values for the IC50 in assay [1], in assay [2] and in assay [3] were above 10 µM, 3090 nM and above 10 µM, respectively.
On to `CCOC(=O)C1CCCN(C(=O)c2ccc3c(Nc4ccc(OC(F)(F)F)cc4)ncnc3c2)C1` (stereo not drawn), for which the IC50 was 8.84 µM in assay [1], 5550 nM in assay [2] and above 10 µM in assay [3].
